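Each compound was tested at five concentrations against cells in 96-well plates for 48 hours. Here, GI50 denotes the concentration required for 50% inhibition of growth. TGI is the concentration that stops growth completely.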
How the values were obtained:
Assay in all cases: NCI anticancer screen, dose series, 48 h
SF-539 CNS = system: SF-539 CNS
A498 renal = system: A498 renal
OVCAR-4 ovarian = system: OVCAR-4 ovarian
HOP-62 NSCLC = system: HOP-62 NSCLC
786-0 renal = system: 786-0 renal
EKVX NSCLC = system: EKVX NSCLC
NCI-H226 lung = system: NCI-H226 lung
CAKI-1 renal = system: CAKI-1 renal

Row | SMILES | TGI (SF-539 CNS) [µM] | TGI (A498 renal) [µM] | TGI (OVCAR-4 ovarian) [µM] | TGI (HOP-62 NSCLC) [µM] | TGI (786-0 renal) [µM] | TGI (EKVX NSCLC) [µM] | TGI (NCI-H226 lung) [µM] | TGI (CAKI-1 renal) [µM] | GI50 (SF-539 CNS) [µM] | GI50 (NCI-H226 lung) [µM] | GI50 (A498 renal) [µM] | GI50 (OVCAR-4 ovarian) [µM] | GI50 (HOP-62 NSCLC) [µM] | GI50 (786-0 renal) [µM] | GI50 (EKVX NSCLC) [µM] | GI50 (CAKI-1 renal) [µM]
1 | CN(C)CC/C(=N\Nc1ccc(Cl)c(Cl)c1)c1ccccc1 | 3.47 | 9.13 | 5.01 | 6.09 | 3.37 | 3.93 |  |  |  |  |  |  |  |  |  | 
2 | COc1cc(/C=C/c2ccc(OC(C)=O)cc2)cc(OC)c1OC | 60.8 | 71.8 | > 100 | > 100 | > 100 | > 100 | > 100 | > 100 |  |  |  |  |  |  |  | 
3 | COc1ccc2nc(NC(=O)C(=O)C(C(=O)c3ccccc3-c3ccccc3)C3OC(=O)c4ccccc43)sc2c1 (stereo not given) | 28.9 | 40.8 |  | 35.3 | 31.7 | 45.9 | 21.2 |  |  |  |  |  |  |  |  | 
4 | NC(=S)NNC(=O)CCC(=O)Nc1ccc(Cl)cc1Cl | > 100 | > 100 | > 100 | > 100 | > 100 |  | > 100 | > 100 |  |  |  |  |  |  |  | 
5 | Cc1ccccc1-c1c(N)nc(N)nc1C(=O)Nc1nccs1 | > 100 | > 100 | > 100 | > 100 | > 100 | > 100 | > 100 | > 100 |  |  |  |  |  |  |  | 
6 | CCC[CH2][Ge]([CH2]CCC)([CH2]CCC)[O]C(=O)C(O)c1ccccc1 (stereo not given) | 22.1 | 26.8 | 29 | 23.4 | 23.2 | 15 | 27.9 | 24.1 | 9.64 | 1.2 | 11.7 | 0.794 | 9.67 | 7.41 | 0.309 | 5.9
7 | CCc1ccc(Nc2cc(=O)[nH]c(=S)n2C)cc1 | > 100 | > 100 | > 100 | > 100 | > 100 | > 100 | > 100 | > 100 |  |  |  |  |  |  |  | 
8 | CCOC(=O)N1N=NC2C3OC(C[C@@]3(C#N)OC(C)=O)[C@H]21 (stereo not given in full) | > 100 |  | > 100 | > 100 | > 100 | > 100 | > 100 | > 100 |  |  |  |  |  |  |  | 
9 | CCCCCCCCCC1C(C)c2c([nH]c3ccccc23)C2C(=O)N(c3ccccc3)C(=O)C21 (stereo not given) | 40.6 | 33.8 | 19.1 | 31.2 | 25.1 | > 100 | 24.9 | 28.8 |  |  |  |  |  |  |  | 
10 | CCC[CH2][Sn]([CH2]CCC)([O]C(=O)c1cc(OC)c(OC)cc1OC)[O]C(=O)c1cc(OC)c(OC)cc1OC | 2.23 | 3.21 | 4.31 | 4.41 | 2.78 | 4.83 | 8.26 | 1.63 | 1.02 | 2.21 | 1.48 | 1.9 | 2.35 | 1.41 | 1.64 | 0.419
11 | Cc1ccc(NC(=O)CC/C(CC(=O)c2ccc(F)cc2)=N\NC(=O)C(=O)NN)cc1C | > 100 | > 100 | > 100 | > 100 | > 100 | > 100 | > 100 | > 100 |  |  |  |  |  |  |  | 
12 | COc1cc(C(=O)C/C(CCC(=O)Nc2ccc(Cl)cc2Cl)=N/NC(=O)C(N)=O)ccc1O | > 100 | > 100 | > 100 | > 100 | > 100 | > 100 | > 100 | > 100 |  |  |  |  |  |  |  | 
13 | Cc1nc(-c2nc(C)c(C(=O)NN(C)C)s2)sc1C(=O)NN(C)C | > 100 | > 100 | > 100 | > 100 | > 100 | > 100 | > 100 | > 100 |  |  |  |  |  |  |  | 
14 | CC1=C(C(=O)CC(=O)C(=O)Nc2ccccc2)Sc2ccccc2N1 | > 100 | > 100 | > 100 | > 100 | > 100 | > 100 | > 100 |  |  |  |  |  |  |  |  | 
15 | Nc1ccc2c(c1)CC1c3ccccc3C(C2)c2ccccc21 | > 100 | > 100 | > 100 | > 100 | > 100 |  |  | > 100 |  |  |  |  |  |  |  | 
16 | CCOC(=O)C(Cc1ccccc1)NC(=O)OC(C)(C)C (stereo not given) | > 100 | > 100 |  | > 100 | > 100 |  |  |  |  |  |  |  |  |  |  | 
17 | O=C(/C=C/c1ccccc1O)c1cccnc1 | > 100 | > 100 | > 100 | > 100 | > 100 | > 100 | > 100 | > 100 |  |  |  |  |  |  |  | 
18 | O=C1[C@@H]2C3SC(c4ccccc43)[C@@H]2C(=O)N1c1ccccc1 | > 100 | > 100 |  | > 100 | > 100 | > 100 | > 100 | > 100 |  |  |  |  |  |  |  | 
19 | CCC1(C(=O)OC)CCc2c(OC)ccc(OC)c2C1=O (stereo not given) | > 100 | > 100 | > 100 | > 100 | > 100 | > 100 |  | > 100 |  |  |  |  |  |  |  | 
20 | NCCCC1NC(=O)/C(=C(O)/C=C/C2CCC[C@@H]2CC2SCCS2)C1=O (stereo not given in full) | > 100 | > 100 | > 100 | > 100 | > 100 | > 100 | > 100 |  |  |  |  |  |  |  |  | 

Source: PubChem BioAssay (NCI)
